Our source for the IC50 cell viability values is the supplement of paper PMC12137928.

For the experiment, the system named is HCT116. The conditions noted are these: 72 h. Put shortly: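 For IC50 and maximal efficacy, four-parameter Hill fits were used. Input values were CellTiter-Glo luminescence from HCT116 cells seeded at 250 per well in 1536-well plates, normalized to vehicle (0%) and positive control (-100%). Pattern correction followed normalization.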

Counter-ions that a name gives are not always drawn.

For the compound `Nc1ccc([As](=O)(O)O)cc1` [(4-Aminophenyl)arsonic acid], the IC50 cell viability runs as follows: (ICRF193 0 nM) greater than 45.8 µM; (ICRF193 200 nM) greater than 45.8 µM.
`Cc1c(C)c2c(c(C)c1O)CCC(C)(COc1ccc(CC3SC(=O)NC3=O)cc1)O2` (stereo not given) [Troglitazone]: the IC50 cell viability was greater than 45.8 µM (ICRF193 0 nM) and greater than 45.8 µM (ICRF193 200 nM).
In the case of `Oc1ccc(OCc2ccccc2)cc1` [Monobenzone], the IC50 cell viability (ICRF193 0 nM) is greater than 45.8 µM and the IC50 cell viability (ICRF193 200 nM) is greater than 45.8 µM.
Regarding `O=P(O)(O)OP(=O)(O)O` [Pyrophosphoric acid], the IC50 cell viability is greater than 45.8 µM (ICRF193 0 nM) and greater than 45.8 µM (ICRF193 200 nM).
Regarding `CC(=O)N[C@H](Cc1ccc2ccccc2c1)C(=O)N[C@H](Cc1ccc(Cl)cc1)C(=O)N[C@H](Cc1cccnc1)C(=O)N[C@@H](CO)C(=O)N[C@@H](Cc1ccc(O)cc1)C(=O)N[C@H](CCCNC(N)=O)C(=O)N[C@@H](CC(C)C)C(=O)N[C@@H](CCCNC(=N)N)C(=O)N1CCC[C@H]1C(=O)N[C@H](C)C(N)=O` [Cetrorelix], the IC50 cell viability is, setting by setting: (ICRF193 0 nM) greater than 45.8 µM; (ICRF193 200 nM) greater than 45.8 µM.
For `CC(C)=CCC/C(C)=C/CC/C(C)=C/C(=O)OCC(=O)[C@@]1(O)CC[C@H]2[C@@H]3CCC4=CC(=O)C=C[C@]4(C)[C@H]3[C@@H](O)C[C@@]21C` [Prednisolone farnesylate], the IC50 cell viability is greater than 45.8 µM (ICRF193 0 nM) and greater than 45.8 µM (ICRF193 200 nM).
With `CCCCC/C=C/C/C=C/CCCCCCCC(=O)O` [9(E),12(E)-Octadecadienoic acid], the IC50 cell viability was greater than 45.8 µM (ICRF193 0 nM) and greater than 45.8 µM (ICRF193 200 nM).
Regarding `COc1ccc(CN2CCNCC2)c(OC)c1OC` [Trimetazidine dihydrochloride], the IC50 cell viability is greater than 45.8 µM (ICRF193 0 nM) and greater than 45.8 µM (ICRF193 200 nM).
With `Cn1nnc(-c2ccc(-c3ccc(N4C[C@@H](CO)OC4=O)cc3F)cn2)n1` [(S)-Tedizolid], the IC50 cell viability reads like this: (ICRF193 0 nM) greater than 45.8 µM; (ICRF193 200 nM) greater than 45.8 µM.
Regarding `CCC(=O)O[C@@H]1CC(=O)O[C@H](C)C/C=C/C=C/[C@H](OC(C)=O)[C@H](C)C[C@H](CC=O)[C@H](O[C@@H]2O[C@H](C)[C@@H](O[C@H]3C[C@@](C)(OC(C)=O)[C@@H](OC(=O)CC)[C@H](C)O3)[C@H](N(C)C)[C@H]2O)[C@H]1OC` [Midecamycin Acetate], the IC50 cell viability by setting is: (ICRF193 0 nM) greater than 45.8 µM; (ICRF193 200 nM) greater than 45.8 µM.
On to `CC(C)(C(=O)c1cccnc1)c1cccnc1` [Metyrapone], for which the IC50 cell viability by setting is: (ICRF193 0 nM) greater than 45.8 µM; (ICRF193 200 nM) greater than 45.8 µM.
`CCC1(c2cccc(O)c2)CCCCN(C)C1` (stereo not given) [Meptazinol hydrochloride]: the IC50 cell viability is greater than 45.8 µM (ICRF193 0 nM) and greater than 45.8 µM (ICRF193 200 nM).
In turn, `CC(C)C[C@@H](N)C(=O)O` [D-Leucine] had an IC50 cell viability (ICRF193 0 nM) greater than 45.8 µM and an IC50 cell viability (ICRF193 200 nM) greater than 45.8 µM.
For the compound `CCC1(C)CC(=O)NC(=O)C1` [Bemegride], the IC50 cell viability by setting is: (ICRF193 0 nM) greater than 45.8 µM; (ICRF193 200 nM) greater than 45.8 µM.
On to `Nc1nc(=O)c2nc(CNc3ccc(C(=O)N[C@@H](CCC(=O)O)C(=O)O)cc3)cnc2[nH]1` [Folic acid], for which the IC50 cell viability by setting is: (ICRF193 0 nM) greater than 45.8 µM; (ICRF193 200 nM) greater than 45.8 µM.
Consider `CCC(CC)[C@H](NC(C)=O)[C@@H]1[C@H](O)[C@@H](C(=O)O)C[C@H]1NC(=N)N` [Peramivir], for which the IC50 cell viability runs as follows: (ICRF193 0 nM) greater than 45.8 µM; (ICRF193 200 nM) greater than 45.8 µM.
Turning to `CO/N=C(\C(=O)N[C@@H]1C(=O)N2C(C(=O)O)=C(Cn3nnc(C)n3)CS[C@H]12)c1csc(N)n1` [Cefteram], the IC50 cell viability is greater than 45.8 µM (ICRF193 0 nM) and greater than 45.8 µM (ICRF193 200 nM).
Take `CN(C)CCc1c[nH]c2ccc(CS(=O)(=O)N3CCCC3)cc12` [Almotriptan]: the IC50 cell viability is, setting by setting: (ICRF193 0 nM) greater than 45.8 µM; (ICRF193 200 nM) greater than 45.8 µM.
As to `CCN(CC)CCOCCOC(=O)C(CC)(CC)c1ccccc1` [Oxeladin Citrate], the IC50 cell viability by setting is: (ICRF193 0 nM) greater than 45.8 µM; (ICRF193 200 nM) greater than 45.8 µM.
For the compound `NC[C@H]1CC[C@H](C(=O)O)CC1` [TRANEXAMIC ACID], the IC50 cell viability is greater than 45.8 µM (ICRF193 0 nM) and greater than 45.8 µM (ICRF193 200 nM).
